According to patent US20260250318A1, “COMPOSITIONS AND METHODS FOR CROSSING THE BLOOD BRAIN BARRIER” (VOYAGER THERAPEUTICS, INC., priority 2022, published 2026):

Assays:
Conditions in all cases: synthetic library passage 3, intravenous, relative to wild-type AAV9
brain [1] = assay: NGS fold enrichment of synthetic library (passage 3) in C57Bl/6 mice, first cross-species screen; format: in vivo
Procedure, shortened: (§1)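 Passage-3 synthetic capsid library given intravenously […] to NHPs (2-4 years) and BALB/c or C57Bl/6 mice (n=3, 6-8 weeks). After e.g. 28 days, tissue RNA was RT-PCR amplified and NGS-sequenced; values are fold enrichment of each variant relative to wild-type AAV9.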

brain [2] = assay: NGS fold enrichment of synthetic library (passage 3) in BALB/c mice, first cross-species screen; format: in vivo
Procedure, shortened: as §1

[3] = system: brain, spinal cord, and DRG of the NHPs; assay: NGS fold enrichment of synthetic library (passage 3) in NHPs, first cross-species screen; format: in vivo, cynomolgus macaques (Macaca fascicularis)
Procedure, shortened: as §1

[4] = RNA from brain of C57Bl/6 mice, NGS
[5] = RNA from brain of BALB/c mice, NGS
[6] = RNA from spinal cord of NHPs, NGS

For GSGQNQQHASSNNT, the “Fold enrichment over AAV9 in the brain of Mice (C57Bl/6)” value (shortened to “Fold enrichment over AAV9 … (C57Bl/6)”) (brain [1]; [4]) was 0.789 fold, the “Fold enrichment over AAV9 in the brain of Mice (BALB/c)” value (“Fold enrichment over AAV9 … (BALB/c)” for short) (brain [2]; [5]) was 0.896 fold and the “Fold enrichment over AAV9 in the brain of NHPs” value ([3]; RNA from brain of NHPs, NGS) was 1.166 fold. The “Fold enrichment over AAV9 in the spinal cord of NHPs” value [3, 6] was 7.155 fold.

With GSGQNQQHHSSHTT the “Fold enrichment over AAV9 … (C57Bl/6)” value (brain [1]; [4]) was 0.957 fold, the “Fold enrichment over AAV9 … (BALB/c)” value (brain [2]; [5]) was 0.452 fold and the “Fold enrichment over AAV9 in the brain of NHPs” value ([3]; RNA from brain of NHPs, NGS) was 1.328 fold. The “Fold enrichment over AAV9 in the spinal cord of NHPs” value [3, 6] was 2.158 fold.

With GSGQNQQHPSTQQT the “Fold enrichment over AAV9 … (C57Bl/6)” value (brain [1]; [4]) was 1.017 fold, the “Fold enrichment over AAV9 … (BALB/c)” value (brain [2]; [5]) was 0.680 fold and the “Fold enrichment over AAV9 in the brain of NHPs” value ([3]; RNA from brain of NHPs, NGS) was 1.205 fold. The “Fold enrichment over AAV9 in the spinal cord of NHPs” value [3, 6] was 1.552 fold.

With GSGQNQQHSLSSQT the “Fold enrichment over AAV9 … (C57Bl/6)” value (brain [1]; [4]) was 0.700 fold, the “Fold enrichment over AAV9 … (BALB/c)” value (brain [2]; [5]) was 0.730 fold and the “Fold enrichment over AAV9 in the brain of NHPs” value ([3]; RNA from brain of NHPs, NGS) was 1.150 fold. The “Fold enrichment over AAV9 in the spinal cord of NHPs” value [3, 6] was 3.844 fold.

For GSGQNQQHSSKATT, the “Fold enrichment over AAV9 … (C57Bl/6)” value (brain [1]; [4]) was 1.350 fold, the “Fold enrichment over AAV9 … (BALB/c)” value (brain [2]; [5]) was 1.401 fold and the “Fold enrichment over AAV9 in the brain of NHPs” value ([3]; RNA from brain of NHPs, NGS) was 1.345 fold. The “Fold enrichment over AAV9 in the spinal cord of NHPs” value [3, 6] was 12.248 fold.

With GSGQNQQHSSSHLT the “Fold enrichment over AAV9 … (C57Bl/6)” value (brain [1]; RNA NGS, brain of C57Bl/6 mice) was 1.091 fold, the “Fold enrichment over AAV9 … (BALB/c)” value (brain [2]; RNA NGS, brain of BALB/c mice) was 0.859 fold and the “Fold enrichment over AAV9 in the brain of NHPs” value ([3]; RNA NGS, brain of NHPs) was 1.581 fold. For the same sequence, the “Fold enrichment over AAV9 in the spinal cord of NHPs” value ([3]; RNA NGS, spinal cord of NHPs) was 2.782 fold.

GSGQNQQHVSSPRT was tested, and the “Fold enrichment over AAV9 … (C57Bl/6)” value (brain [1]; RNA NGS, brain of C57Bl/6 mice) was 1.847 fold, the “Fold enrichment over AAV9 … (BALB/c)” value (brain [2]; RNA NGS, brain of BALB/c mice) was 0.938 fold and the “Fold enrichment over AAV9 in the brain of NHPs” value ([3]; RNA NGS, brain of NHPs) was 2.176 fold. The “Fold enrichment over AAV9 in the spinal cord of NHPs” value ([3]; RNA NGS, spinal cord of NHPs) was 1.279 fold.

For GSGQNQQHYGSQGT, the “Fold enrichment over AAV9 … (C57Bl/6)” value (brain [1]; [4]) was 1.345 fold, the “Fold enrichment over AAV9 … (BALB/c)” value (brain [2]; [5]) was 0.379 fold and the “Fold enrichment over AAV9 in the brain of NHPs” value ([3]; RNA from brain of NHPs, NGS) was 1.189 fold. For the same sequence, the “Fold enrichment over AAV9 in the spinal cord of NHPs” value [3, 6] was 0.453 fold.

With GSGQNQQIGESRMT the “Fold enrichment over AAV9 … (C57Bl/6)” value (brain [1]; [4]) was 0.890 fold, the “Fold enrichment over AAV9 … (BALB/c)” value (brain [2]; [5]) was 0.453 fold and the “Fold enrichment over AAV9 in the brain of NHPs” value ([3]; RNA from brain of NHPs, NGS) was 1.279 fold. For the same sequence, the “Fold enrichment over AAV9 in the spinal cord of NHPs” value [3, 6] was 0.103 fold.

In the case of GSGQNQQIISTKIT, the “Fold enrichment over AAV9 … (C57Bl/6)” value (brain [1]; [4]) is reported as 0.951 fold, the “Fold enrichment over AAV9 … (BALB/c)” value (brain [2]; [5]) is reported as 0.710 fold and the “Fold enrichment over AAV9 in the brain of NHPs” value ([3]; RNA from brain of NHPs, NGS) is reported as 1.275 fold. For the same sequence, the “Fold enrichment over AAV9 in the spinal cord of NHPs” value [3, 6] was 0.000 fold.

For GSGQNQQINHRSPT, the “Fold enrichment over AAV9 … (C57Bl/6)” value (brain [1]; [4]) was 0.259 fold, the “Fold enrichment over AAV9 … (BALB/c)” value (brain [2]; [5]) was 0.220 fold and the “Fold enrichment over AAV9 in the brain of NHPs” value ([3]; RNA from brain of NHPs, NGS) was 1.173 fold. The “Fold enrichment over AAV9 in the spinal cord of NHPs” value [3, 6] was 0.748 fold.

GSGQNQQIPHVHQT was tested, and the “Fold enrichment over AAV9 … (C57Bl/6)” value (brain [1]; [4]) was 0.576 fold, the “Fold enrichment over AAV9 … (BALB/c)” value (brain [2]; [5]) was 0.218 fold and the “Fold enrichment over AAV9 in the brain of NHPs” value ([3]; RNA from brain of NHPs, NGS) was 1.409 fold. For the same sequence, the “Fold enrichment over AAV9 in the spinal cord of NHPs” value [3, 6] was 0.768 fold.

GSGQNQQKLSSMST was tested, and the “Fold enrichment over AAV9 … (C57Bl/6)” value (brain [1]; [4]) was 1.160 fold, the “Fold enrichment over AAV9 … (BALB/c)” value (brain [2]; [5]) was 1.052 fold and the “Fold enrichment over AAV9 in the brain of NHPs” value ([3]; RNA from brain of NHPs, NGS) was 1.286 fold. The “Fold enrichment over AAV9 in the spinal cord of NHPs” value [3, 6] was 1.586 fold.

For GSGQNQQKQNHGNT, the “Fold enrichment over AAV9 … (C57Bl/6)” value (brain [1]; RNA NGS, brain of C57Bl/6 mice) was 1.538 fold, the “Fold enrichment over AAV9 … (BALB/c)” value (brain [2]; RNA NGS, brain of BALB/c mice) was 1.340 fold and the “Fold enrichment over AAV9 in the brain of NHPs” value ([3]; RNA NGS, brain of NHPs) was 1.695 fold. The “Fold enrichment over AAV9 in the spinal cord of NHPs” value ([3]; RNA NGS, spinal cord of NHPs) was 5.349 fold.

For GSGQNQQKSLNGNT, the “Fold enrichment over AAV9 … (C57Bl/6)” value (brain [1]; [4]) was 0.586 fold, the “Fold enrichment over AAV9 … (BALB/c)” value (brain [2]; [5]) was 0.851 fold and the “Fold enrichment over AAV9 in the brain of NHPs” value ([3]; RNA from brain of NHPs, NGS) was 1.275 fold. The “Fold enrichment over AAV9 in the spinal cord of NHPs” value [3, 6] was 8.573 fold.

For GSGQNQQKVSPLLT, the “Fold enrichment over AAV9 … (C57Bl/6)” value (brain [1]; [4]) was 0.755 fold, the “Fold enrichment over AAV9 … (BALB/c)” value (brain [2]; [5]) was 0.806 fold and the “Fold enrichment over AAV9 in the brain of NHPs” value ([3]; RNA from brain of NHPs, NGS) was 1.314 fold. The “Fold enrichment over AAV9 in the spinal cord of NHPs” value [3, 6] was 1.602 fold.

For GSGQNQQLAITLGT, the “Fold enrichment over AAV9 … (C57Bl/6)” value (brain [1]; RNA NGS, brain of C57Bl/6 mice) was 0.877 fold, the “Fold enrichment over AAV9 … (BALB/c)” value (brain [2]; RNA NGS, brain of BALB/c mice) was 0.143 fold and the “Fold enrichment over AAV9 in the brain of NHPs” value ([3]; RNA NGS, brain of NHPs) was 1.011 fold. The “Fold enrichment over AAV9 in the spinal cord of NHPs” value ([3]; RNA NGS, spinal cord of NHPs) was 0.000 fold.
